Test [1] concerns human dermal fibroblasts. As to the kind of experiment: Collagen assay (Sircol): collagen synthesis by dermal fibroblasts. Format: cell-based. The settings on record: 0.5 mg/ml collagen peptide, stimulation for three weeks, photometric at 492 nm, FIG. 1A. Here is the method:
(§1) The human cells used were obtained from tebu-bio GmbH, Offenbach, Germany. The chondrocytes (Cat. No. 402-05a) or dermal fibroblasts (Cat. No. 106-05a) were first sown in 12-well culture plates and cultured at 37° C., 5% CO2 in Ham's F12 medium, to which 10% fetal calf serum, 20 U/ml penicillin-streptomycin and 50 μg/ml ascorbic acid were added. On every other day, the culture medium was replaced by new culture medium until the cells had reached 80% confluence. To investigate the influence of the collagen peptides according to the invention of SEQ ID NO: 7, 8, 9 and 10 on the biosynthesis of matrix proteins, the cell culture medium was then replaced by a special stimulation medium to which 0.5 mg/ml of the specific collagen peptides according to the invention were added.
To investigate the collagen metabolism, the amount of newly synthesized collagen was determined after stimulating the cells with 0.5 mg/ml BCP for three weeks. The synthesized collagen was isolated using the Sircol assay (Article No. 054S5000, 2019, tebu-bio, Offenbach, Germany, or Biocolor Ltd., UK) according to the manufacturer's instructions. In brief, the culture medium was initially discarded and the adherent cell layers were digested with 0.1 mg pepsin solution in 0.5 M acetic acid at 4° C. overnight. The cell suspensions were neutralized by adding 100 μl of an acid-neutralizing reagent. The synthesized collagen was then separated off by adding 200 μl of an isolation and concentration solution with vigorous shaking at 4° C. overnight. After centrifugation (12,000 rpm, 10 min) and discarding the supernatant, the isolated collagen was resuspended in 1 ml of Sircol dye solution. After 30 minutes of shaking and another centrifugation, the collagen pellet was covered with 750 μl of cold acidic solid washing reagent. After another centrifugation, the supernatant was again discarded and the enriched collagen was taken up in 250 μl of alkaline solution. In each case 200 μl of the sample solutions were used for photometric quantification of the synthesized collagen. The absorbance was measured at a wavelength of 492 nm. The amount of collagen synthesized in each case was determined on the basis of standardized collagen solutions.

Test [2] deals with human dermal fibroblasts. In words: Proteoglycan assay (Blyscan glycosaminoglycan assay): proteoglycan synthesis by dermal fibroblasts. To be noted: 0.5 mg/ml collagen peptide, stimulation for two weeks, photometric at 656 nm, FIG. 1B. Format: cell-based. As to the method: as §1
The Blyscan glycosaminoglycan assay (Article No. 054B3000, 2019, tebu-bio, Offenbach, Germany, or Biocolor Ltd., UK) was used to determine proteoglycans. The biosynthesis of proteoglycans was determined after stimulating dermal fibroblasts for two weeks. According to the manufacturer's instructions, after discarding the culture medium, the cell layers were covered with 1 ml of papain extraction solution and incubated for three hours at 65° C. with vigorous shaking. The cell suspensions were then centrifuged (10,000 g, 10 min) and the supernatants were collected. After adding 1 ml of Blyscan dye solution and shaking (30 min), the supernatants were centrifuged again (12,000 rpm, 10 min) and then discarded. The isolated proteoglycan pellets were resuspended in 500 μl of dissociation solution. A photometric determination of the synthesized proteoglycan in 200 μl sample solution was carried out at a wavelength of 656 nm in comparison to untreated control experiments.

Where no end group is shown, it is not given here. [ ]: non-standard residue; d: D form. Hyp = O=C(O)[C@@H]1C[C@@H](O)CN1

Take “GP[P]GPVGTKGL[P]GFYGPLGI[P]GHPGPWGMLGTKGV [SEQ ID NO: 10]”: in the test with human dermal fibroblasts [1], the “increased collagen synthesis by dermal fibroblasts compared to untreated controls” value (“increased collagen synthesis” below) was 21%. For the same substance, the “increase of synthesis of proteoglycans by dermal fibroblasts in comparison to untreated controls” value (“increase of synthesis of proteoglycans” below) in the test with human dermal fibroblasts [2] was found to be 22%.
For the substance “GP[P]GPLGMKGL[P]GVWGPFGL[P]GTPGPHGITGYKGV [SEQ ID NO: 9]”, the “increased collagen synthesis” value in the test on human dermal fibroblasts [1] worked out at 21%. Also, the “increase of synthesis of proteoglycans” value with human dermal fibroblasts [2] came to 21%.
Consider “GL[P]GKYGVHGLTGPLGP[P]GPMGI[P]GWKGFVGPT (GL[Hyp]GKYGVHGLTGPLGP[Hyp]GPMGI[Hyp]GWKGFVGPT) [SEQ ID NO: 8]”, for which, in the test with human dermal fibroblasts [1], the “increased collagen synthesis” value was determined as 22%. Further, in the test on human dermal fibroblasts [2], the “increase of synthesis of proteoglycans” value is on record as 22%.
Regarding “GL[P]GKMGVFGLTGPIGP[P]GPWGV[P]GHKGYLGPT (GL[Hyp]GKMGVFGLTGPIGP[Hyp]GPWGV[Hyp]GHKGYLGPT) [SEQ ID NO: 7]”, in the test on human dermal fibroblasts [1], the “increased collagen synthesis” value was 27%. The “increase of synthesis of proteoglycans” value with human dermal fibroblasts [2] amounted to 26%.
